Entries after “also recorded” stand apart in the source; their conditions may differ.
Tests used:
[1] = test system: M0-differentiated THP-1 cells; assay: MTT-based viability assay on M0-differentiated THP-1 cells, 72 h; format: cell-based, human; details: 72-h exposure, compared with AB12 cells
Procedure: incubated for an additional 50 min. Subsequently, the medium was aspirated, and the purple formazan crystals formed in viable cells were dissolved in DMSO (100 μL/well). Optical densities were measured at 570 nm using a BioTek Synergy H1 microplate and MultiskanTM SkyHigh plate readers. The quantity of viable cells was expressed in terms of treated/control (T/C) values in comparison to untreated control cells, and 50% inhibitory concentrations (IC 50) were calculated from concentration-effect curves by interpolation. An evaluation was based on means from at least three independent experiments, each comprising three replicat es per […]
For macrophage analyses, the acute monocytic leukemia -derived THP-1 cell line (ATCC) was used as a model. 1 × 104 THP-1 cells were seeded per well in 96-well plates in RPMI-1640 with 10% FCS and treated for 24 h with 75 nM phorbol 12-myristate 13-acetate (PMA, Sigma-Aldrich) to induce M0 macrophage differentiation. After the differentiation period, PMA was replaced by fresh culture medium to recover for 2h. Afterwards increasing concentrations of 1G, 5A, 5B and 5G were added for a 72-h continuous drug exposure assay. In parallel, the murine mesothelioma cell line AB12 was seeded into 96 -well plates at 2.5 × 10^3 cells/well and were allowed to attach for 24 h. Gold compounds were added to the cells as described for the THP-1 model above. After the incubation period of 72 h, cell viability was determined by an MTT-based assay (EU4U, Biomedica) following the instructions of the manufacturer. DMSO had not impact on the cell viability at the concentrations used. […]

[2] = test system: calreticulin (CRT) in AB12 cells; assay: CRT detection, flow cytometry; format: cell-based, mouse; details: AB12, 5 × IC50 (72 h), 120 min
Procedure: page 23: concentrations for 100 min at 37 °C. After the treatment, the supernatant was collected in 2 mL microtubes, centrifuged (300 × g, 5 min) and the media was removed. The adherent cells were then trypsinized with 500 μL of trypsin at 37 °C for 5 min. Next, 1 mL of medium was added to neutralize trypsin and the resulting cell suspension was combined with the supernatant. The wells were washed with 200 μL of PBS, which was also combined with the supernatant. The combined solutions were centrifuged (300 × g, 5 min), and the resulting pellets were washed with PBS (2 × 1 mL) and resuspended in 200 μL of Annexin V binding buffer. […] Cell death was evaluated by flow cytometry using a CytoFLEX Flow Cytometer equipped with a 488 nm laser and a 638 nm laser (Beckman Coulter, Brea, CA, USA). The cells were excited by the 488 nm laser, and fluorescence emissions were detected at 525/40 nm for FITC (Annexin V) and at 610/20 nm for ECD (PI). […] The percentage of necrosis was determined by calculating the sum of cells in Q1 and Q2. […] Next, cells were incubated with CRT antibody conjugated with AlexaFluor S23 page 24: 488 (62304S, Cell Signaling Technology) at 4 °C overnight, washed twice with PBS, reconstituted in 500 µL of PBS and analyzed by flow cytometry using a CytoFLEX Flow Cytometer equipped with a 488 nm laser and a 638 nm laser (Beckman Coulter, Brea, CA, USA). […]

[3] = test system: panel of seven MPM cell lines; assay: MTT cytotoxicity assay, 72 h, whole panel (summary ranges); format: cell-based; details: read-out: cytotoxicity range across the cell line panel
Text: Human malignant mesothelioma cancer cell lines JU77 and LO68 were obtained from Cell Bank Australia (Children's Medical Research Institute, Westmead, Australia). Mouse malignant mesothelioma cancer cell line AB12, human nonmalignant mesothelioma cancer cell line Met5A (mesothelial cells), mouse macrophage cell line J774 and human monocytic cell line THP-1 were obtained from American Type Culture Collection (ATCC) (Rockville, MD, USA). Human malignant mesothelioma cell lines VMC23 (epithelial), Meso82 (sarcomatous), Meso92 (biphasic), were kindly provided by Prof. Walter Berger (Medical University of Vienna). All cells except for J774 were cultured in RPMI and J774 cells were cultured in DMEM. Both types of media were supplemented with 10% FBS and 1% penicillin-streptomycin (10,000 U/mL). Cells were grown in tissue culture flasks (75 cm2 and 25 cm2, SPL Life Sciences Co., Ltd., Korea). All cell lines were grown at 37 °C in a humidified atmosphere of 95% air and 5% CO 2 and passaged when they reached 80–90% confluency. All Au stock solutions were prepared in 1% DMSO in the respected medium, ensuring that cell viability was not inhibited. […]
The cytotoxicity of compounds was determined using an MTT colorimetric test. […]
incubated for an additional 50 min. […] Optical densities were measured at 570 nm using a BioTek Synergy H1 microplate and MultiskanTM SkyHigh plate readers. […]

HMGB1 in AB12 cells = assay: HMGB1 detection, flow cytometry; format: cell-based, mouse; details: AB12, 5 × IC50 (72 h), 240 min
Procedure: AB12 cells were seeded into Cellstar 6-well plates (Greiner Bio-One) at a density of 5 × 10^5 cells per well (2 ml per well). The cells were allowed to resume exponential growth for 16 h. […] After the treatment, the supernatant was collected in 2 mL microtubes. The wells were washed with 1 ml of PBS, trypsinized with 300 μL of trypsin at 37 °C for 5 min and combined with the corresponding supernatant. The cell suspension was then centrifuged (300  g, 10 min), washed with PBS (2  1 ml). […] RT, washed once with 1 mL PBS and centrifuged (500  g, 10 min). Next, cells were incubated with HMGB1 antibody (Catalogue number: 3935, Cell Signaling Technology) at 4 °C overnight (1:500 dilution in PBS) and washed with 1 ml of PBS (500  g, 10 min). […] The cells were excited by the 488 nm laser, and fluorescence S24 page 25: emission was detected at 525/40 nm for FITC (CRT). The resulting dot blots were acquired from 10,000 events and quantified using Flowjo software (version 10.8.0, BD Biosciences, San Jose, CA, USA).

| SMILES | sensitivity of THP-1-derived macrophages [1] | CRT expression (in words) [2] | IC50 [3] | HMGB1 expression (in words) (HMGB1 in AB12 cells) |
| --- | --- | --- | --- | --- |
| F[P-](F)(F)(F)(F)F.c1cc[c]2c(c1)Nc1cccc[n+]1[Au-]21[S]C(=[N+]2CCCCCC2)[S]1 (stereo not shown) [5G] | highly sensitive; also recorded: increased sensitivity in comparison to the malignant mesothelioma cells |  |  |  |
| Nc1nc2[nH]cc(CCc3ccc(C(=O)N[C@@H](CCC(=O)O)C(=O)O)cc3)c2c(=O)[nH]1 [Pemetrexed, pemetrexed, reference compound] |  | no changes in CRT expression | 0.023 to 0.3 µM | significant increase in HMGB1 expression |

Reference: paper PMC11887451, “Leveraging Immunogenic Cell Death to Enhance the Immune Response against Malignant Pleural Mesothelioma Tumors” (Journal of the American Chemical Society, 2025)
